For one test, the system named is T1, Ph8.
T1 construct: gene malE
As to conditions: read-out: Km (μM) / - Maltose; 10 mM sodium phosphate pH 7.0, 37°C, without maltose; BLA domain site.

A further test relates to T2, c4.
T2 construct: gene malE
As to conditions: read-out: Km (μM) / - Maltose; 10 mM sodium phosphate pH 7.0, 37°C, without maltose; BLA domain site; substrate range 100-400 µM, above the Km.

For the compound `CC1(C)S[C@@H]2[C@H](NC(=O)[C@H](N)c3ccccc3)C(=O)N2[C@H]1C(=O)O` [ampicillin], the Km was determined as 730 ± 120 µM in the test on Ph8 and 73 ± 4 µM in the test on c4.

(Values after PMC3214044, “In Vitro Recombination of Non-Homologous Genes Can Result in Gene Fusions that Confer a Switching Phenotype to Cells” (PLoS ONE, 2011).)
